Source: patent publication US6664231B1, “Anti-fungal peptides” (priority 1993, dated 2003)

Columns and labels:
[1] = system: C. albicans (SLU-1 strain); assay: Survival of mice systemically infected with Candida albicans; format: in vivo, mouse
Method: Groups of 15 male DBA/2J mice at age 6-8 weeks (Jackson Laboratory, Bar Harbor, Me.) were inoculated with 1.24×10^5 C. albicans (SLU-1 strain as described in Example 2) by intravenous injection into the tail vein. Cells were prepared for animal injection as follows. A single colony was selected and used to inoculate a 5 mL tube of Sabouraud dextrose broth. Incubation was at 30° C. with shaking to allow aeration for a period of 15-18 hours. Four mL of the overnight culture were added to 100 mL of fresh Sabouraud dextrose broth (1:25 dilution) and incubated for 4 hours. The 100 mL culture was pelleted at 1,500×g for 5 minutes. Cells were washed twice by adding 20 mL D-PBS, vortexing and re-centrifuging. Cells were collected in one tube and a sample is diluted 1:10 to be measured by OD570 (1 OD unit=3×10^7 CFU/mL). The cells were diluted to the desired dose in D-PBS and kept at 4° C. until used. Doses were confirmed by performing serial ten-fold dilutions and plating 50 μl per dilution on Sabouraud dextrose agar. Colonies were counted the following day after overnight incubation at 37° C. A […] culture yielded approximately 1×10^9 CFU/mL.
Immediately after fungal challenge, the mice were intravenously injected via the tail vein with a 0.1 mL volume of 10 mg/kg XMP.36, 5 mg/kg XMP.97, 10 mg/kg XMP.102, 1 mg/kg amphotericin B (Sigma, St. Louis, Mo.), or phosphate buffered saline (PBS) as a control. Treatment with the same amounts of peptides, amphotericin B or PBS was repeated at Day 2 and Day 4 (except that the second dose of XMP.36 was given at a dose of 5 mg/kg). Mice were monitored twice daily for mortality until termination of the study at Day 28. […] In FIG. 4, the symbol “X” represents survival after treatment with amphotericin B; open squares, treatment with XMP.97; open circles, treatment with XMP.36; open diamonds, treatment with XMP.102; and open triangles, treatment with buffer. Statistical significance was evaluated using the Lifetest Survival Curve analysis. [Lawless, Statistical Models and Methods for Lifetime Data, John Wiley & Sons, New York (1982).] The duration and almost linear decline in survival is analogous to human opportunistic candidiasis.
In additional 3-dose studies, groups of 15 mice were injected with a fungal challenge of 0.5×10^5 Candida cells, prepared for injection as described above, followed by treatment at Day 0, Day 2 and Day 5 with a 0.1 mL volume of 10 mg/kg XMP.127, 5 mg/kg XMP.13, 5 mg/kg XMP.37, 1 mg/kg amphotericin B, or PBS as a control. […] In FIG. 5, the symbol “X” represents survival after treatment with amphotericin B; open circles, treatment with XMP.127; filled triangles, treatment with buffer; open squares, treatment with XMP.37; open triangles, treatment with XMP.13.
Further studies to determine the effectiveness of anti-fungal peptides were performed at an increased dosing regimen (6 doses rather than 3 doses as described above). Groups of 9 week-old male DBA/2J mice were inoculated with concentrations of 2.7×10^5 Candida cells (prepared as described above) by intravenous injection in the tail vein. Immediately after fungal challenge, the mice were treated with a 0.1 mL volume of 10 mg/kg XMP.284, 1 mg/kg amphotericin B or PBS as a control at Day 0, Day 2, Day 4, Day 7, Day 9 and Day 11. All amphotericin B-treated animals were protected.
Additional 6-dose experiments were conducted as described above, using inocula of 0.5-3.0×10^5 Candida cells and using 0.01, 0.05, 0.1, 0.5, 1.0 or 5.0 mg/kg doses of peptide.

[2] = system: Candida albicans SLU-2G amphotericin B-resistant strain; assay: Radial diffusion assay (Example 3), amphotericin B-resistant strain; format: cell-based; settings: FIG. 2B
Method: Domain III derived peptides were tested for their fungicidal activity on amphotericin resistant Candida. Resistant colonies of Candida were isolated using a gradient plate technique. A slanted Sabouraud dextrose agar plate was poured and allowed to harden. The plate was made level and additional agar supplemented with nystatin (Sigma, St. Louis, Mo., cat. no. N-3503) at a concentration of 10 μg/mL was poured. Cells from the CA-1 colony of Candida albicans SLU-1 strain described in Example 2 (10^7 cells in a volume of 100 μL) were spread over the plate and incubated at […] overnight.
For the radial diffusion assays, Candida albicans SLU-1 were grown as described above and SLU-2G were grown overnight in Sabouraud dextrose broth supplemented with 10 μg/mL amphotericin B and 5 μg/mL ceftriaxone at 37° C. Cultures were diluted 1:25 into fresh, unsupplemented broth and allowed to grow for 5 hours at 37° C. Cells were pelleted at 1,500×g for 5 minutes at 4° C. Supernatant was decanted and replaced with 5 mL of 10 mM phosphate buffer, pH 7.4. After centrifugation the cell pellets were resuspended with 5 mL phosphate buffer for an OD570 determination.
Cells were added to 10 mL of molten, cooled (˜45° C.) underlayer agarose to a concentration of 1×10^6/mL and the suspension was poured into a level square petri plate with gentle rocking to allow even distribution and solidification to a uniform thickness of about 1 mm. Wells were cut into the hardened agarose with a sterilize, 3 mm diameter punch with vacuum.
Peptides were two-fold serially diluted with DPBS from a starting concentration of approximately 1 mg/mL. […] Five μL were added per well and allowed to diffuse at 37° C. for 1.5-2.0 hours. Then 10 mL of molten overlayer agarose were added and the plates were incubated inverted at 37° C. overnight. Plates were stained with a dilute Coomassie solution, inhibition zones were measured with calipers and net areas were calculated, then converted to pmol values by PROBIT analysis.

[3] = 0.5×10^5 Candida cells, doses Day 0, 2, 5, 10 mg/kg XMP.127, 5 mg/kg XMP.13, 5 mg/kg XMP.37, 1 mg/kg amphotericin B, FIG. 5
[4] = 2.7×10^5 Candida cells, 10 mg/kg, 6 doses (Day 0, 2, 4, 7, 9, 11), FIG. 6

Molecule	mice survived until Day 28 [1, 3] [%]	pmol for a 30 mm^2 zone of inhibition against SLU-2G [2] [pmol]	survival at Day 6 [1, 4] [%]	survival at Day 24 [1, 4] [%]	mice survived until Day 28 ([1]; 1.24×10^5 C. albicans i.v., 3 doses i.v. (Day 0, 2, 4), 10 mg/kg XMP.36, 5 mg/kg XMP.97, 10 mg/kg XMP.102, 1 mg/kg amphotericin B, FIG. 4) [%]	protection of animals (6-dose study) ([1]; 2.7×10^5 Candida cells, 1 mg/kg, 6 doses)
H-KSKVGWAIQLFHKK-NH2 [XMP.37]	33	75				
H-KSKVGWLIQLFHKK-NH2 [XMP.13]	20	129				
H-SKVKWLIQLFHKK-NH2 [XMP.284]			87	33		
C[C@@H]1[C@H](O)[C@@H](C)/C=C/C=C/C=C/C=C/C=C/C=C/C=C/[C@H](O[C@@H]2O[C@H](C)[C@@H](O)[C@H](N)[C@@H]2O)C[C@@H]2O[C@](O)(C[C@@H](O)C[C@@H](O)[C@H](O)CC[C@@H](O)C[C@@H](O)CC(=O)O[C@H]1C)C[C@H](O)[C@H]2C(=O)O [Amphotericin B, amphotericin B, reference compound]	100	> 541			100	protected
